Results reported in ChEMBL document CHEMBL5512605, “Targeted regulated cell death with small molecule compounds in colorectal cancer: Current perspectives of targeted therapy and molecular mechanisms” (Eur J Med Chem, 2024).

Assays:
[1] = system: HCT-116; test: Cytotoxicity against human HCT-116 cells assessed as inhibition of cell proliferation measured after 48 hrs by MTT assay; type: functional, cell-based; settings: HCT-116, 48 h
[2] = system: RKO; test: Cytotoxicity against human RKO cells assessed as inhibition of cell proliferation measured after 48 hrs by MTT assay; type: functional, cell-based
[3] = system: SW480; test: Cytotoxicity against human SW480 cells assessed as inhibition of cell proliferation measured after 48 hrs by MTT assay; type: functional, cell-based
[4] = system: HCT-116; test: Antiproliferative activity against human HCT-116 cells assessed as inhibition of cell growth measured upto 72 hrs by CCK-8 method; type: functional, cell-based; settings: HCT-116, 72 h
[5] = system: HCT-116; test: Antiproliferative activity against human HCT-116 cells measured after 48 hrs by MTT assay; type: functional, cell-based; settings: HCT-116, 48 h
[6] = system: LoVo; test: Antiproliferative activity against human LoVo cells measured after 48 hrs by MTT assay; type: functional, cell-based
[7] = system: HCT-8; test: Antiproliferative activity against human HCT-8 cells measured after 48 hrs by MTT assay; type: functional, cell-based; settings: HCT-8, 48 h
[8] = system: SW-620; test: Antiproliferative activity against human SW620 cells assessed as inhibition of cell growth; type: functional, cell-based
[9] = system: HCT-116; test: Antiproliferative activity against human HCT-116 cells assessed as inhibition of cell growth; type: functional, cell-based
[10] = system: SW-620; test: Cytotoxicity against human SW620 cells assessed as inhibition of cell proliferation measured after 48 hrs by MTT assay; type: functional, cell-based; settings: SW-620, 48 h
[11] = system: SW837; test: Antiproliferative activity against human SW837 cells; type: functional
[12] = system: HCT-116; test: Antiproliferative activity against human HCT-116 cells assessed as inhibition of cell viability measured after 24 hrs by CCK-8 method; type: functional, cell-based; settings: HCT-116, 24 h
[13] = system: HT-29; test: Antiproliferative activity against human HT-29 cells assessed as inhibition of cell viability measured after 24 hrs by CCK-8 method; type: functional, cell-based; settings: HT-29, 24 h
[14] = system: HCT-116; test: Antiproliferative activity against human HCT-116 cells; type: functional, cell-based; settings: Homo sapiens, HCT-116
[15] = system: SW480; test: Antiproliferative activity against human SW480 cells; type: functional, cell-based; settings: Homo sapiens, SW480
[16] = system: HCT-116; test: Antiproliferative activity against human HCT-116 cells measured after 72 hrs by SRB method; type: functional, cell-based; settings: HCT-116, 72 h
[17] = system: HT-29; test: Antiproliferative activity against human HT-29 cells measured after 72 hrs by SRB method; type: functional, cell-based; settings: HT-29, 72 h
[18] = system: HCT-116; test: Cytotoxicity against human HCT-116 cells measured after 48 hrs by MTT colorimetric assay; type: functional, cell-based; settings: HCT-116, 48 h
[19] = system: HT-29; test: Antiproliferative activity against human HT-29 cells assessed as inhibition of cell viability incubated for 24 hrs by CCK-8 method; type: functional, cell-based; settings: HT-29, 24 h
[20] = system: SW480; test: Antiproliferative activity against human SW480 cells assessed as inhibition of cell growth incubated for 24 hrs by CCK-8 method; type: functional, cell-based; settings: SW480, 24 h
[21] = system: COLO 320; test: Antiproliferative activity in human COLO 320 cells incubated for 24 hrs by MTT assay; type: functional
[22] = system: Caco-2; test: Antiproliferative activity against human Caco-2 cells measured after 24 hrs by MTT assay; type: functional, cell-based; settings: Caco-2, 24 h
[23] = system: SW-620; test: Antiproliferative activity against human SW620 cells; type: functional, cell-based
[24] = system: HCT-116; test: Cytotoxicity against human HCT-116 cells assessed as inhibition of cell proliferation measured after 72 hrs by SRB method; type: functional, cell-based
[25] = system: HCT-116; test: Antiproliferative activity against human HCT-116 cells assessed as inhibition of cell viability by CCK-8 method; type: functional, cell-based
[26] = system: DLD-1; test: Antiproliferative activity against human DLD-1 cells assessed as inhibition of cell viability by CCK-8 method; type: functional, cell-based
[27] = system: SW480; test: Antiproliferative activity against human SW480 cells incubated for 24 hrs by CCK-8 method; type: functional, cell-based
[28] = system: SW 1116; test: Antiproliferative activity against human SW 1116 cells incubated for 24 hrs by CCK-8 method; type: functional, cell-based

Compound: C[C@@H]1CC[C@@]2(OC1)O[C@H]1C[C@H]3[C@@H]4CC=C5C[C@H](O[C@@H]6O[C@H](CO)[C@@H](O)[C@H](O[C@@H]7O[C@H](CO)[C@@H](O)[C@H](O)[C@H]7O)[C@H]6O[C@@H]6O[C@@H](C)[C@H](O)[C@@H](O)[C@H]6O)CC[C@]5(C)[C@H]4CC[C@]3(C)[C@H]1[C@@H]2C
- IC50 [1]: 5.47 µM
- IC50 [2]: 3.12 µM
- IC50 ([3]; Homo sapiens, SW480, 48 h): 2.67 µM

Compound: CC(=O)Oc1ccccc1C(=O)O [ASPIRIN]
- IC50 [4]: 8000 µM

Compound: CO[C@H]1C(=O)[C@]2(C)[C@@H](OC)C[C@H]3OC[C@@]3(OC(C)=O)[C@H]2[C@H](OC(=O)c2ccccc2)[C@]2(O)C[C@H](OC(=O)[C@H](O)[C@@H](NC(=O)OC(C)(C)C)c3ccccc3)C(C)=C1C2(C)C [CABAZITAXEL]
- IC50 [5]: 0.029 µM
- IC50 [6]: 0.063 µM
- IC50 [7]: 0.532 µM

Compound: CC1=C(O)C(=O)C=C2C1=CC=C1[C@@]2(C)CC[C@@]2(C)[C@@H]3C[C@](C)(C(=O)O)CC[C@]3(C)CC[C@]12C [CELASTROL]
- IC50 [8]: 0.29 µM
- IC50 [9]: 0.29 µM

Compound: CC(=O)O[C@H]1[C@H]2O[C@]23[C@@H]2CC[C@@H]4C[C@@H](O)CC[C@]4(C)[C@H]2CC[C@]3(C)[C@H]1c1ccc(=O)oc1 [CINOBUFAGIN]
- IC50 [1]: 0.782 µM
- IC50 [10]: 0.364 µM
- IC50 [2]: 0.182 µM

Compound: Cc1ncsc1-c1ccc([C@H](C)NC(=O)[C@@H]2C[C@@H](O)CN2C(=O)[C@@H](NC(=O)CCCCCC(=O)N2CCN(CC[C@H](CSc3ccccc3)Nc3ccc(S(=O)(=O)NC(=O)c4ccc(N5CCN(CC6=C(c7ccc(Cl)cc7)CCC(C)(C)C6)CC5)cc4)cc3S(=O)(=O)C(F)(F)F)CC2)C(C)(C)C)cc1 [DT-2216]
- IC [11]: 1 µM

Compound: O=c1cc(-c2ccc(O)cc2)oc2cc(O)c([C@@H]3O[C@H](CO)[C@@H](O)[C@H](O)[C@H]3O)c(O)c12 [ISOVITEXIN]
- IC50 [12]: 29.8 µM
- IC50 [13]: 37.2 µM

Compound: COc1ccc(-c2cc(=O)c3c(O)c(OC)c(O)c(OC)c3o2)cc1 [NEVADENSIN]
- IC50 [14]: 5 µM
- IC50 [15]: 5 µM

Compound: O=C(Nc1ccc([N+](=O)[O-])cc1Cl)c1cc(Cl)ccc1O [NICLOSAMIDE]
- IC50 [16]: 0.32 µM
- IC50 [17]: 4.66 µM

Compound: CC(=O)Oc1ccccc1C(=O)Nc1ncc([N+](=O)[O-])s1 [NITAZOXANIDE]
- IC50 [18]: 11.2 µM

Compound: CC(CN1c2ccccc2Sc2ccccc21)N(C)C (configuration not stated) [PROMETHAZINE]
- IC50 [19]: 27.3 µM
- IC50 [20]: 33 µM

Compound: CC(C)c1cccc(C(C)C)c1O [PROPOFOL]
- IC ([3]; time 48 hrs): 12.5 µM

Compound: O=c1c(O)c(-c2ccc(O)c(O)c2)oc2cc(O)cc(O)c12 [QUERCETIN]
- IC [21]: 50 µM

Compound: CC[C@@H](C(=O)[C@@H](C)[C@@H](O)[C@H](C)[C@@H]1O[C@@H]([C@@H](CC)C(=O)O)CC[C@@H]1C)[C@H]1O[C@]2(C=C[C@@H](O)[C@]3(CC[C@@](C)([C@H]4CC[C@](O)(CC)[C@H](C)O4)O3)O2)[C@H](C)C[C@@H]1C [SALINOMYCIN]
- IC50 [22]: 15.7 µM

Compound: C[S+]([O-])CCCCN=C=S (configuration not stated) [SULFORAPHANE]
- IC50 [22]: 55.3 µM

Compound: CC(/C=C/C(=O)NO)=C\[C@@H](C)C(=O)c1ccc(N(C)C)cc1 [TRICHOSTATIN]
- IC50 [23]: 2.45 µM

Compound: C/C=C\C(=O)O[C@@H]1C[C@H]2O[C@@H]3C=C(C)C(=O)C[C@]3(C)[C@]1(C)[C@]21CO1 [TRICHOTHECIN]
- IC50 [24]: 0.25 µM

Compound: CETUXIMAB
- IC [25]: 100 µM
- IC [26]: 100 µM

Compound: IVERMECTIN
- IC50 [27]: 15.3 µM
- IC50 [28]: 6.27 µM
